Measurements published in US20230174667A1 (priority 2020, published 2023).

Tests used:
[1] = system: heat-inactivated SARS-CoV-2; assay: Inhibition of SARS-CoV-2 uptake into RAW 264.7 murine macrophages (flow cytometry); type: cell-based; settings: co-administered with SARS-CoV-2
NF-κB [2] = assay: Inhibition of SARS-CoV-2-induced NF-κB activation in RAW 264.7/NF-κB-luc cells (luciferase); type: cell-based, murine; settings: same agents as in the RAW 264.7 uptake test
NF-κB [3] = assay: Inhibition of SARS-CoV-2-induced NF-κB activation in A549/NF-κB-luc cells (luciferase); type: cell-based, human

Molecule	inhibition of SARS-CoV-2 cellular uptake (percent inhibition, FIG. 7) [1]	inhibition of SARS-CoV-2-induced NF-κB activation (percent inhibition, FIG. 8) (NF-κB [2])	inhibition of SARS-CoV-2-induced NF-κB activation (percent inhibition, FIG. 5) (NF-κB [3])
PRRAR peptide: PRRAR peptide from the heparin-binding motif of the S1 subunit of the SARS-CoV-2 spike protein (Pro681-Arg685) (UniProt P0DTC2 681-685, looked up, fragment)	significantly (p<0.05) inhibited	inhibited	–
Cn1c2ccccc2c2c3c(c4c5ccccc5n(CCC#N)c4c21)CNC3=O [Gö 6983, Gö 6976]	significantly (p<0.05) inhibited	inhibited	significantly (p<0.05) inhibited
heparan sulfate	significantly (p<0.05) inhibited	inhibited	significantly (p<0.05) inhibited
TAT peptide: amino acid sequence YGRKKRRQRRR, synthesized by PepScan	–	–	significantly (p<0.05) inhibited
polyarginine: R8, amino acid sequence RRRRRRRR, synthesized by PepScan	–	–	significantly (p<0.05) inhibited
SPRRARSV peptide: SPRRARSV (Ser680-Val687, includes the PRRAR heparin-binding motif) from the S1 subunit of the SARS-CoV-2 spike protein	–	–	significantly (p<0.05) inhibited
NC(N)=NC(=O)c1nc(Cl)c(N2CCCCCC2)nc1N [hexamethylene amiloride]	significantly (p<0.05) inhibited	inhibited	significantly (p<0.05) inhibited
recombinant SDC4: recombinant SDC4, RnD Systems, Cat. no. 2918-SD (protein, UniProt P31431 19-198, looked up) Syndecan-4: ESIRETEVIDPQDLLEGRYFSGALPDDEDVVGPGQESDDFELSGSGDLDDLEDSMIGPEVVHPLVPLDNHIPERAGSGSQVPTEPKKLEENEVIPKRISPVEESEDVSNKVSMSSTVQGSNIFERTEVLAALIVGGIVGILFAVFLILLLMYRMKKKDEGSYDLGKKPIYKKAPTNEFYA	significantly (p<0.05) inhibited	inhibited	significantly (p<0.05) inhibited
